{
  "source": "patent US20050051179A1",
  "about": "“Simple apparatus for preparing experimental models of brain neuronal damage and preparation of secondary brain damage model with methods for evaluation of drug efficacy of novel compounds against brain damage and memory-related events” (priority 2003, published 2005)",
  "key": {"[1]": {"test_system": "SBD derived from experimental head injury", "assay": "MRI diagnosis of cerebral injuries after drop-weight impact (SBD model)", "format": "in vivo, rat", "conditions": "rats, 3 mg/kg i.p. before impact of 50 cm·g; 1 hr post-impact", "description": "(§1) Male Fisher rats weighing 400-450 g were anesthetized with sodium pentobarbital (Nembutal; Dainippon Pharmaceutical Co., Ltd., Osaka) by i.p. administration (40 mg/kg) before the head was restrained in a stereotaxic apparatus. Weight 20 of 5-gram mass positioned at a drop-distance of 10 cm was dropped onto the brain surface under gravitational force to generate an impact of 50 cm·g, causing a head injury. Follow-up studies of the progress of subsequent events from 1 to 48 hours post-impact were monitored with the MRI approach.\n(§2) Immediately after impact, MRI diagnoses were conducted to categorize animals as (i) no injuries, (ii) no subarachinoid hemorrhage and (iii) external wounds and hemorrhages inflicted on brain surface, etc. Animals having such criteria were omitted from subsequent studies. Animals with confirmed cerebral injuries but without these criteria were divided into groups of six each."}, "[2]": {"test_system": "SBD generated with the drop weight apparatus", "assay": "MRI findings and cerebral blood flow (CBF) velocity after drop-weight impact (240 cm·g)", "format": "in vivo, dog", "conditions": "dogs", "text": "(§3) Eight healthy 4-year-old male Beagle dogs were anesthetized before a square piece of skull (1.2×1.2 cm^2) was craniectomized. As two different cerebral injuries were involved in the study, a unilateral parietal bone was drilled and the brain surface surgically exposed without removing the dura mater. In two randomized dogs, a self-designed 5-mm spherical DCN with reproducibility was applied to generate concussion (CC in Table 1). In the remaining four dogs, the WD method was employed under the following experimental conditions: a weight of 12-g mass with a drop-distance of 20 cm to generate an impact of 240 cm·g.\n(§4) MRI findings were performed with superconductor magnetism of magnetic field intensity 0.5T (Flexart MRT-50GP; Toshiba Medical Co., Ltd.). CBF velocities of DCN (n=2) and drop-weight-inflicted (n=4) dogs (including craniectomized skull-replaced dogs) were measured via MRI using the 3D-phase shift magnetic resonance angiography with presaturation pulse (PAMRA: TE=25, TR=10). Craniectomized skull-chips were replaced and kept in position with adhesive."}, "[3]": {"test_system": "pyramidal cells of hippocampal CA3 field", "assay": "Viable pyramidal cell counts per unit area, hippocampal CA3 field, after drop-weight impact", "format": "in vivo, rat", "conditions": "rats, 3 mg/kg i.p. before impact", "description": "as §1\nImmediately after impact, MRI diagnoses were conducted to categorize animals as (i) no injuries, (ii) no subarachinoid hemorrhage and (iii) external wounds and hemorrhages inflicted on brain surface, etc. Animals having such criteria were omitted from subsequent studies. […]\nAlong with MRI findings from 1 to 48 hours post-impact, brain injuries were also evaluated histopathologically using the cardioperfusion method with 200 mL of physiological saline (0.9 w/w %) to first remove blood cells followed by fixation with 50 mL of 0.1 MPBS (pH: 7.4) containing 4% paraformaldehyde (PFA). […]\nWith regard to the therapeutic effects of chemical agents tested, viable pyramidal cell counts per unit area (1 mm^2) of tissues in hippocampal CA1 and CA3 fields were determined to derive the area of tissue damage/injury using image-analysis software (NIH Co., Ltd.; Image Ver. 1.55). […]"}, "[4]": {"test_system": "direct contusion nest (DCN) injury", "assay": "MRI findings and cerebral blood flow (CBF) velocity after direct contusion nest (DCN)", "format": "in vivo, dog", "text": "as §3, §4"}, "[5]": {"test_system": "pyramidal cells of hippocampal CA1 field", "assay": "Viable pyramidal cell counts per unit area, hippocampal CA1 field, after drop-weight impact", "format": "in vivo, rat", "conditions": "rats, 3 mg/kg i.p. before impact", "description": "as §1, §2\nAlong with MRI findings from 1 to 48 hours post-impact, brain injuries were also evaluated histopathologically using the cardioperfusion method with 200 mL of physiological saline (0.9 w/w %) to first remove blood cells followed by fixation with 50 mL of 0.1 MPBS (pH: 7.4) containing 4% paraformaldehyde (PFA). Brain tissues were then embedded in paraffin and coronal sections of the brain specimens were sectioned before staining with the hematoxylin-eosin (H&E) reagent.\nWith regard to the therapeutic effects of chemical agents tested, viable pyramidal cell counts per unit area (1 mm^2) of tissues in hippocampal CA1 and CA3 fields were determined to derive the area of tissue damage/injury using image-analysis software (NIH Co., Ltd.; Image Ver. 1.55). As for the extent of tissue damage, slices with the maximum damage area between two groups were compared."}},
  "data": [
    {"smiles": "C[C@]12N[C@H](Cc3ccccc31)c1ccccc12", "note": "[MK-801]", "values": [
      {"measurement": "T2-weighted high-signal and T1-weighted low-signal areas (MRI)", "setting": "[1]", "result": "expanded"},
      {"measurement": "time-related expansion of damage after impact (MRI)", "setting": "[2]; drop weight group with drug pretreatment, 240 cm·g", "result": "not established"},
      {"measurement": "SBD development (CBF peak at 3 hr after impact)", "setting": "[2]; drop-weight-inflicted, drug-pretreated group", "result": "effectively suppressed SBD development"},
      {"measurement": "viable pyramidal cell counts per unit area, CA3 field, decrease (rate)", "setting": "[3]; 1 hr post-impact, non-treated 45.9%", "result": 63.0, "unit": "%"},
      {"measurement": "viable pyramidal cell counts per unit area, CA3 field, decrease (rate)", "setting": "[3]; 48 hr post-impact, non-treated 37.6%", "result": 61.2, "unit": "%"},
      {"measurement": "CBF after the high values registered immediately after impact", "setting": "[4]; dogs subjected to DCN, drug-treated group (same as non-treated)", "result": "no subsequent changes thereafter"},
      {"measurement": "damage field with time (MRI)", "setting": "[4]; dogs, DCN group with drug pretreatment", "result": "damage area had expanded"},
      {"measurement": "suppression of SBD exacerbation (viable cell counts 48 hr vs 1 hr post-impact)", "setting": "[5]", "result": "could not completely suppress SBD exacerbation"},
      {"measurement": "viable pyramidal cell counts per unit area, CA1 field, decrease compared with the control group", "setting": "[5]; 1 hr post-impact, non-treated 59.2%", "result": 66.4, "unit": "%"},
      {"measurement": "viable pyramidal cell counts per unit area, CA1 field, decrease compared with the control group", "setting": "[5]; 48 hr post-impact, non-treated 44.5%", "result": 54.8, "unit": "%"}
    ]}
  ]
}
